Experimental data from PMC9266368, “Synthesis and Biological Evaluation of Small Molecules as Potential Anticancer Multitarget Agents” (International Journal of Molecular Sciences, 2022).

Assays:
membrane PD-L1 (mPD-L1) = target: T1, membrane PD-L1 (mPD-L1) (Homo sapiens, UniProt Q9NZQ7); assay: Membrane PD-L1 relative quantification by flow cytometry; format: cell-based; conditions: 24 h, 100 or 10 μM (Table 7), percentage referred to DMSO control
T1 construct: endogenous in cells; host or cells: HT-29, A-549, MCF-7
Method: Based on antiproliferative activity of synthetized derivatives, we decided to study the effect of the amino derivatives 14–26 on the expression of both membrane targets PD-L1 and VEGFR-2 (mPD-L1 and mVEGFR-2). The evaluation was performed on three cancer cell lines (HT-29, A-549, and MCF-7) by flow cytometry after 24 h of treatment with the corresponding compounds. Compounds were used at a 100 or 10 μM concentration depending on their IC50 value (see Table 1 in Materials and Methods section). The presence of both targets in the membrane was relatively determined by using DMSO-treated cells as a negative control.
(§1) To study the effect of the compounds on every biological target in cancer cell lines the compounds were used at a 100 or 10 μM dose, depending on their IC50 and the treated cell line.
(§2) For the assay, 10^5 cells per well were incubated for 24 h with the corresponding dose of the tested compound in a total volume of 500 μL of their growth media.
To detect membrane PD-L1 and VEGFR-2, after the cell treatments, they were collected, fixed with 4% in PBS paraformaldehyde, and stained with FITC Mouse monoclonal Anti-Human VEGFR-2 (ab184903) and Alexa Fluor® 647 Rabbit monoclonal Anti-PD-L1 (ab215251).

total PD-L1 (tPD-L1) = target: T2, total PD-L1 (tPD-L1) (Homo sapiens, UniProt Q9NZQ7); assay: Total PD-L1 relative quantification by flow cytometry; format: cell-based; conditions: for tPD-L1 relative detection, A-549 / tPD-L1 relative detection, HT-29 / tPD-L1 relative detection, MCF-7: 24 h, 100 or 10 μM (Table 7), relative to DMSO control
T2 construct: endogenous in cells; host or cells: HT-29, A-549, MCF-7
Method: (§3) The study was carried out again on HT-29, A-549, and MCF-7 cell lines by flow cytometry after 24 h of treatment with the corresponding compounds. The presence of the targets in the whole cell were relatively determined by using DMSO-treated cells as a negative control and BMS-8 as a positive one for PD-L1 (Table 3).
as §1, §2
(§4) For the detection of total PD-L1, VEGFR-2, and c-Myc, the procedure was the same as for membrane targets, but after fixation, a treatment with 0,5% in PBS TritonTM X-100 was performed. The antibodies used for PD-L1 and VEGFR-2 were the ones previously described, and for the detection of c-Myc, it was FITC Rabbit monoclonal anti-c-Myc (ab223913).

c-Myc = c-Myc relative quantification by flow cytometry; format: cell-based, human; conditions: for c-Myc relative detection, A-549 / c-Myc relative detection, HT-29 / c-Myc relative detection, MCF-7: 24 h, 100 or 10 μM (Table 7), relative to DMSO control
Method: as §3, §1, §2, §4

[1] = system: HEK-293 (human embryonic kidney cells); assay: MTT cell viability assay, HEK-293; format: cell-based; conditions: HEK293, 48 h, 2 days incubation, non-tumor cell line, average ±SD of three experiments
Method: (§5) The effects of triazole derivatives 1–26 on the cell viability were determined by MTT assay, and the IC50 values were determined toward the human tumor cell lines HT-29 (colon adenocarcinoma), A-549 (lung adenocarcinoma), and MCF-7 (breast adenocarcinoma), as well as toward the non-tumor cell line HEK-293 (human embryonic kidney cells).
(§6) In 96-well plates, 3 × 10^3 (A549 and HEK-293) or 5 × 10^3 (HT-29, MCF-7) cells per well were incubated with serial dilutions of the tested compounds in a total volume of 100 μL of their growth media. The 3-(4,5-dimethylthiazol-2-yl)-2,5-diphenyltetrazolium bromide (MTT; Sigma Chemical Co.) dye reduction assay in 96-well microplates was used. After 2 days of incubation (37 °C, 5% CO2 in a humid atmosphere), 10 μL of MTT (5 mg/mL in phosphate-buffered saline, PBS) was added to each well, and the plate was incubated for a further 3 h (37 °C). After that, the supernatant was discarded and replaced by 100 µL of DMSO to dissolve formazan crystals. The absorbance was then read at 550 nm by spectro-photometry. For all concentrations of compound, cell viability was expressed as the percentage of the ratio between the mean absorbance of treated cells and the mean absorbance of untreated cells. Three independent experiments were performed, and the IC50 values (i.e., concentration half inhibiting cell proliferation) were graphically determined by using GraphPad Prism 4 software (2019).

[2] = system: HT-29 (colon adenocarcinoma); assay: MTT cell viability assay, HT-29; format: cell-based; conditions: Homo sapiens, HT-29, 48 h, 2 days incubation, average ±SD of three experiments
Method: as §5, §6

[3] = target: T3, membrane VEGFR-2 (mVEGFR-2) (Homo sapiens, UniProt P35968); assay: Membrane VEGFR-2 relative quantification by flow cytometry; format: cell-based; conditions: 24 h, 100 or 10 μM (Table 7), sorafenib 10 μM, percentage referred to DMSO control
T3 construct: endogenous in cells; host or cells: HT-29, A-549, MCF-7
Method: The presence of both targets in the membrane was relatively determined by using DMSO-treated cells as a negative control.
as §2

[4] = system: MCF-7 (breast adenocarcinoma); assay: MTT cell viability assay, MCF-7; format: cell-based; conditions: Homo sapiens, MCF7, 48 h, 2 days incubation, average ±SD of three experiments
Method: as §5, §6

[5] = system: A-549 (lung adenocarcinoma); assay: MTT cell viability assay, A-549; format: cell-based; conditions: Homo sapiens, A549, 48 h, 2 days incubation, average ±SD of three experiments
Method: as §5, §6

[6] = HT-29, compared to non-treated cells

T3 sequence (P35968 20-1356): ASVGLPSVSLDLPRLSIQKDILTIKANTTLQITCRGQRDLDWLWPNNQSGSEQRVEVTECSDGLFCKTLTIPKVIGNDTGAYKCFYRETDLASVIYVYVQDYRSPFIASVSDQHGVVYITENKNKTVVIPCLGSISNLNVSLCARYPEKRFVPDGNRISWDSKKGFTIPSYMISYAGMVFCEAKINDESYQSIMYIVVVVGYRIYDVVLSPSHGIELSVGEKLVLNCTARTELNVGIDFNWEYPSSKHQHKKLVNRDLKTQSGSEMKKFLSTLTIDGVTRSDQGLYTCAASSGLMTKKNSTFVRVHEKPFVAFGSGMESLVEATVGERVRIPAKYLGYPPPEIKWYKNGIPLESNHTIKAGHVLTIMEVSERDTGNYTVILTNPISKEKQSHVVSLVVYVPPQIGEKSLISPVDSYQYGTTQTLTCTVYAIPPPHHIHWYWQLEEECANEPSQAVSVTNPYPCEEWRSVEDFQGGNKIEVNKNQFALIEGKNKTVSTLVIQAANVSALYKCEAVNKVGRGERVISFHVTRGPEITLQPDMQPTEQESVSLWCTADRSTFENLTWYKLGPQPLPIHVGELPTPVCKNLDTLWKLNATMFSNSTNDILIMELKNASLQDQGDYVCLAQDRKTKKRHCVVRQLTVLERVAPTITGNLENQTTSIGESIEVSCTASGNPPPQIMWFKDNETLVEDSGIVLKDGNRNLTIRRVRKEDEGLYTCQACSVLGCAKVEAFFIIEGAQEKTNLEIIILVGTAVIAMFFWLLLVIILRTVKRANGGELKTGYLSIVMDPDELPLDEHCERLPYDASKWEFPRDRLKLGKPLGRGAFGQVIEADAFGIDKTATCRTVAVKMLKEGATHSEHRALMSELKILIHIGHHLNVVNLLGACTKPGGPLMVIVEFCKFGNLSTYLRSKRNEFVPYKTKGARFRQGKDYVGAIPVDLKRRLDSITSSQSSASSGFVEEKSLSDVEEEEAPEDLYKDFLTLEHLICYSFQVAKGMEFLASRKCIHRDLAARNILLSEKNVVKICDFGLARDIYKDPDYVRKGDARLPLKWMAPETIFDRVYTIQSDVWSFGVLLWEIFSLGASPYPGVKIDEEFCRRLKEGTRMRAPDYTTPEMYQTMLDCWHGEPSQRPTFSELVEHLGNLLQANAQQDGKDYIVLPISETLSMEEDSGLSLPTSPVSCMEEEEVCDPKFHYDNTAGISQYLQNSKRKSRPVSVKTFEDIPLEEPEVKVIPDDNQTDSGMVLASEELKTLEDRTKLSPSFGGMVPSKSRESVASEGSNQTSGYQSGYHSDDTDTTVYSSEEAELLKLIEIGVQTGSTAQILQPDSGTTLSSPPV
T2 sequence (Q9NZQ7 19-290): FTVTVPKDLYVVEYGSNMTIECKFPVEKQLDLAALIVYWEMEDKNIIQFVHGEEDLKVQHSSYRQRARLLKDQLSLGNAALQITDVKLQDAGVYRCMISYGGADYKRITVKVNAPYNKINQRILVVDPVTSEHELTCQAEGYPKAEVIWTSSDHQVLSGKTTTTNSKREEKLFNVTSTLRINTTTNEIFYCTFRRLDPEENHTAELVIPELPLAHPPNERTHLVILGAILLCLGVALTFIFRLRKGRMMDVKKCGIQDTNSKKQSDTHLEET
T1 sequence (Q9NZQ7 19-290): as above

SMILES	melting point [°C]	mPD-L1 relative detection, A-549 (membrane PD-L1 (mPD-L1)) [%]	mPD-L1 relative detection, HT-29 (membrane PD-L1 (mPD-L1)) [%]	mPD-L1 relative detection, MCF-7 (membrane PD-L1 (mPD-L1)) [%]	tPD-L1 relative detection, A-549 (total PD-L1 (tPD-L1)) [%]	Inhibition of total PD-L1, A-549 (total PD-L1 (tPD-L1); compared to non-treated cells) [%]	tPD-L1 relative detection, HT-29 (total PD-L1 (tPD-L1); HT-29) [%]	tPD-L1 relative detection, MCF-7 (total PD-L1 (tPD-L1)) [%]	c-Myc relative detection, A-549 (c-Myc; A-549) [%]	c-Myc relative detection, HT-29 (c-Myc; HT-29) [%]	c-Myc relative detection, MCF-7 (c-Myc; MCF-7) [%]	IC50 [1] [µM]	IC50 [2] [µM]	mVEGFR-2 relative detection, A-549 [3] [%]	mVEGFR-2 relative detection, HT-29 [3] [%]	mVEGFR-2 relative detection, MCF-7 [3] [%]	IC50 [4] [µM]	IC50 [5] [µM]	other results
Cc1ccc(Cn2cc(-c3ccc(N)cc3)nn2)cc1 [Compound 17, 4-(1-(4-methylbenzyl)-1H-1,2,3-triazol-4-yl)aniline]	130 to 132	88 ± 21	87 ± 14	89 ± 5	56 ± 19	~50	>100	>100	>100	>100	63 ± 2	4 ± 2	8 ± 2	>100	81 ± 1	>100	4 ± 1	1.7	–
COc1ccccc1Cn1cc(-c2ccc(N)cc2)nn1 [Compound 18, 4-(1-(2-methoxybenzyl)-1H-1,2,3-triazol-4-yl)aniline]	166 to 167	89 ± 9	61 ± 22	81 ± 2	91 ± 4	–	70 ± 11	>100	>100	>100	53 ± 3	> 100	> 100	>100	93 ± 1	>100	> 100	> 100	–
COc1cccc(Cn2cc(-c3ccc(N)cc3)nn2)c1 [Compound 19, 4-(1-(3-methoxybenzyl)-1H-1,2,3-triazol-4-yl)aniline]	103 to 105	>100	>100	96 ± 5	>100	–	85 ± 17	>100	>100	>100	55 ± 5	> 100	> 100	>100	94 ± 1	>100	12 ± 5	> 100	–
COc1ccc(Cn2cc(-c3ccc(N)cc3)nn2)cc1 [Compound 20, 4-(1-(4-methoxybenzyl)-1H-1,2,3-triazol-4-yl)aniline]	132 to 134	95 ± 8	>100	91 ± 9	54 ± 6	~50	67 ± 3	>100	69 ± 9	74 ± 23	62 ± 7	> 100	> 100	>100	92 ± 14	>100	6 ± 4	> 100	Inhibition/downregulation of total PD-L1, HT-29 (total PD-L1 (tPD-L1); [6]): around 35%; Inhibition of c-Myc, A-549 (c-Myc; A-549, compared to non-treated cells): around 30%; Inhibition of c-Myc, HT-29 (c-Myc; [6]): around 30%; Inhibition of c-Myc, MCF-7 (c-Myc; MCF-7): around 30%
Nc1ccc(-c2cn(Cc3ccccc3Br)nn2)cc1 [Compound 24, 4-(1-(2-bromobenzyl)-1H-1,2,3-triazol-4-yl)aniline]	133 to 134	88 ± 12	86 ± 11	91 ± 10	56 ± 7	~50	45 ± 3	>100	>100	>100	57 ± 8	> 100	3.7	>100	84 ± 8	>100	5 ± 1	0.45	–
